Measured values reported in paper PMC12584752, “Covalent fragment screening to inhibit the E3 ligase activity of bacterial NEL enzymes SspH1 and SspH2” (RSC Chemical Biology, 2025).

Legend:
Assay in all cases: Intact LC-MS labelling selectivity
Format in all cases: binding
Conditions in all cases: dilution series 100–6.25 μM, 24 hours at 4 °C
DUB OTUD4 = molecular target: T1, DUB OTUD4 (Homo sapiens, UniProt Q01804)
T1 construct: OTUD4 aa 1–156; His-tag (N, cleaved yes); made in house; host or cells: E. coli BL21
T1 sequence (Q01804 1-156): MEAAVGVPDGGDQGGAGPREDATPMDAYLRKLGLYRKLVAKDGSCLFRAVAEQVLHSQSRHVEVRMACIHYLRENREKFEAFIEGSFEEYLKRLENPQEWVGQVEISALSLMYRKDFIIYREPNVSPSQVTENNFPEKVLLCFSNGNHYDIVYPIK
Protocol: (§1) Fig. 3 Validation of HTC hit compounds by intact MS. Labelling heatmaps of dilution series (100–6.25 μM) of compounds 4–10 with (A) WT SspH1 and (B) C492K SspH1. Labelling heatmaps of dilution series of (C) compound 6 and (D) compound 7 with bacterial and human ubiquitin binding proteins. Recombinant proteins were incubated at either 1.0 or 0.5 μM with 50 μM fragments for 24 hours at 4 °C, before fragment labelling was analysed by intact LC-MS. Bacterial proteins are shown in bold and human proteins in italic fonts. (E)–(H) Kinetics analyses: time courses (0–12 hours) of compound labelling (100–1.56 μM) of SspH1 and SspH2 (0.5 μM) for (E) SspH1 and compound 7, and (F) SspH2 and compound 6. Measurements were performed in technical triplicates. Labelling percentages were plotted against time in GraphPad Prism v.10, and curves fitted separately for each replicate using one-phase association, with constraints Y0 = 0 and plateau = highest labelling percentage. Graphs for SspH1 and compound 6, and SspH2 and compound 7 are shown in Fig. S4A and B. Rate constants (kobs, as given by Graphpad Prism calculated K values) were plotted against fragment concentration in triplicate for (G) SspH1 and (H) SspH2. Straight lines were fitted with constraint Yintercept = 0. For SspH2 kinetics, 100 μM kobs was outside the linear range.
(§2) To mitigate the risk of selecting compounds which indiscriminately recognise ubiquitin binding proteins, we next performed preliminary selectivity studies with compounds 6 and 7 against human ubiquitin system proteins. […] In parallel, we tested the compounds against related NEL E3 ligases SspH2 and IpaH9.8. […] Our identification of dual SspH1 and SspH2 ligands is likely due to the high protein sequence similarity of SspH1 and SspH2 (60% for full length; 78% for NEL domains).
(§3) Dilution series experiments were performed as for 1st round screening. 1 μM OTUD4, OTUD5 or 0.5 μM HOIL, UbcH5A, SspH2, SspH1 C492K were incubated with 100–6.25 μM compounds for 24 hours at 4 °C, in 25 mM HEPES pH 7.5, 50 mM NaCl buffer. Intact protein LC-MS was performed as previously described.[40] The following deconvolution conditions were used for recombinant proteins studied in this work: […]

RBR-type E3 HOIL = molecular target: T2, RBR-type E3 HOIL (Homo sapiens, UniProt Q9BYM8)
T2 construct: HOIL aa 1–510; His-tag (N, cleaved yes); made in house; host or cells: E. coli BL21
T2 sequence (Q9BYM8 1-510): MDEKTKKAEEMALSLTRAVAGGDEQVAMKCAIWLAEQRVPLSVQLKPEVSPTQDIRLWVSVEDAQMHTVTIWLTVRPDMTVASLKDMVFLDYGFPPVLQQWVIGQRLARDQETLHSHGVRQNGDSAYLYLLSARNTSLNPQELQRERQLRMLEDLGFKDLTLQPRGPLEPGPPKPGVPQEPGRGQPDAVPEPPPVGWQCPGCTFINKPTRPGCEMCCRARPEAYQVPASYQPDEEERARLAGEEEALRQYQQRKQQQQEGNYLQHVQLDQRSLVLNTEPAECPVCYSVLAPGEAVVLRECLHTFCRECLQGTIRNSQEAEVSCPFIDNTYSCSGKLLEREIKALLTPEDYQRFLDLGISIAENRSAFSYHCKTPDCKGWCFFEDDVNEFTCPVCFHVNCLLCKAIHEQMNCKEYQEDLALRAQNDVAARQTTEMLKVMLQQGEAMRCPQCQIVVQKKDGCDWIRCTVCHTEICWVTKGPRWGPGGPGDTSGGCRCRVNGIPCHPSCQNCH
Protocol: as §1, §2, §3

HECT-type E3 UBE3C = molecular target: T3, HECT-type E3 UBE3C (Homo sapiens, UniProt Q15386)
T3 construct: UBE3C; 693–1083; His-tag (N, cleaved yes); made in house; host or cells: E. coli BL21
T3 sequence (Q15386 693-1083): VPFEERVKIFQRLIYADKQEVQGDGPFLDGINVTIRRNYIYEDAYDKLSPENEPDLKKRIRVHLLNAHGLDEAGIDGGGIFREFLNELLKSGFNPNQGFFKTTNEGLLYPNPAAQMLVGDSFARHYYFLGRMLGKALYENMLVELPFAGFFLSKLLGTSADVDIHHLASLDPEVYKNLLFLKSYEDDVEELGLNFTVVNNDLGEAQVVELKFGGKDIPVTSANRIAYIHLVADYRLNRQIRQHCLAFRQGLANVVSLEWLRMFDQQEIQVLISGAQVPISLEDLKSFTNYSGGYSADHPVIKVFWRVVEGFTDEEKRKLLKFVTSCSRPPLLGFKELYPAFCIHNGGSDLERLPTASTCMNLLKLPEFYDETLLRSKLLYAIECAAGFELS
Protocol: as §1, §2, §3

DUB OTUD5 = molecular target: T4, DUB OTUD5 (Homo sapiens, UniProt Q96G74)
T4 construct: OTUD5 aa 172–351; His-tag (N, cleaved yes); made in house; host or cells: E. coli BL21
T4 sequence (Q96G74 172-351): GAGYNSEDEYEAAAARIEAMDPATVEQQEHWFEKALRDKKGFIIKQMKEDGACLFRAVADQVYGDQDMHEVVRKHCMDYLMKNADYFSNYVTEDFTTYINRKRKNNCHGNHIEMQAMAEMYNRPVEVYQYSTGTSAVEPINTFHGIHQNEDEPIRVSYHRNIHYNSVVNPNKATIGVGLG
Protocol: as §1, §2, §3

Cc1cc(-c2nc3ccccc3n2C2CCN(C(=O)CCl)CC2)cc(C)c1O.Cl [compound 6]
minimal or no labelling: labelling of OTUD4 (DUB OTUD4) | labelling of HOIL (RBR-type E3 HOIL) | labelling of UBE3C (HECT-type E3 UBE3C) | labelling of OTUD5 (DUB OTUD5)

Cl.O=C(CCl)N1CCC(n2c(-c3ccc(C(F)(F)F)cc3)nc3ccccc32)CC1 [compound 7]
minimal or no labelling: labelling of OTUD4 (DUB OTUD4) | labelling of HOIL (RBR-type E3 HOIL) | labelling of UBE3C (HECT-type E3 UBE3C) | labelling of OTUD5 (DUB OTUD5)
